In experiment [1] the target is T1, human mAChR M1 (Homo sapiens, UniProt P11229).
T1 sequence (P11229 1-460): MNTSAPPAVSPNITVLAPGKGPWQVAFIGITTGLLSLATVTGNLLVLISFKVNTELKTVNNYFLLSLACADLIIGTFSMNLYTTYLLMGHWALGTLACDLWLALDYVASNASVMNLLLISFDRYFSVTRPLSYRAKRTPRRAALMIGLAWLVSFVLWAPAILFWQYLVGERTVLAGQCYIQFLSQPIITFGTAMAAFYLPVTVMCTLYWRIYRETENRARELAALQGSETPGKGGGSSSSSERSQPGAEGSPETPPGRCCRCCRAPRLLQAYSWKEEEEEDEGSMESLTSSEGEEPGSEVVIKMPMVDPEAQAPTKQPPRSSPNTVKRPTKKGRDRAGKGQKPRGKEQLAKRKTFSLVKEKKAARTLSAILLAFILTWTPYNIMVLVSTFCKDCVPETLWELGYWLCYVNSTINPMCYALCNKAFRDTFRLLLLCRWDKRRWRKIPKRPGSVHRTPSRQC
Briefly: mAChR M1 cell-based functional assay (calcium mobilization), PAM activity: increase in the EC20 acetylcholine response. Conditions: CHO-K1 cells expressing hM1; calcium flux (Fluo-4); potentiation of EC20 acetylcholine response. The essentials:
(§1)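 Calcium mobilization in CHO-K1 cells stably expressing hM1, Fluo-4 loaded; 11-point 1:3 compound series added at 4 s, acetylcholine EC20 at 144 s, kinetic fluorescence ratio at 1 Hz. Agonism: rise on compound alone, Emax relative to acetylcholine maximum; PAM: potentiation of EC20 response; four-parameter logistic fits.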
(Calcium assays in cells follow changes in intracellular calcium, usually with a dye or a luminescent sensor.)

The target of experiment [2] is T1, human mAChR M1. Put plainly: mAChR M1 cell-based functional assay (calcium mobilization), agonist activity upon compound addition alone. Conditions: CHO-K1 cells expressing hM1; for EC50: calcium mobilization upon compound addition, no acetylcholine; for Emax: compound alone, relative to the maximum for acetylcholine. Put shortly: as §1

Here are results for 3 molecules from patent US11851406B2, “Positive allosteric modulators of the muscarinic acetylcholine receptor M1” (Vanderbilt University, priority 2018, dated 2023).

SMILES strings stand for the structures.

One may read the EC50 as the concentration that produces a half-maximal response. For orientation: Emax means the maximal effect, on the per cent scale that the assay sets. As to `Cc1c(Cc2ccc(-c3ccn(C)n3)cc2)cc(C(=O)N[C@H]2CC[C@@H]2O)nc1-c1ccn(C)n1` [Compound 13, N-((1S,2S)-2-hydroxycyclobutyl)-5-methyl-6-(1-methyl-1H-pyrazol-3-yl)-4-(4-(1-methyl-1H-pyrazol-3-yl)benzyl)picolinamide], the figures for the EC50 on human mAChR M1 [1] and on human mAChR M1 [2] were 7.99 µM and more than 10 µM, respectively. For the same molecule, the Emax at human mAChR M1 [1] was 80%; on human mAChR M1 [2] it was less than 5%.

For `Cc1c(Cc2ccc(-c3ccn(C)n3)cc2)cc(C(=O)N[C@H]2CCC[C@@H]2O)nc1-c1ccn(C)n1` [Compound 12, N-((1S,2S)-2-hydroxycyclopentyl)-5-methyl-6-(1-methyl-1H-pyrazol-3-yl)-4-(4-(1-methyl-1H-pyrazol-3-yl)benzyl)picolinamide], on human mAChR M1 [1], the EC50 is 1.97 µM and the Emax stood at 86%. Moreover, on human mAChR M1 [2], the EC50 is more than 10 µM and the Emax turned out to be 6%.

For the molecule `Cc1c(Cc2ccc(-c3ccn(C)n3)nc2)cc(C(=O)NC2CCOCC2)nc1-n1cccn1` [Compound 49, 5-methyl-4-((6-(1-methyl-1H-pyrazol-3-yl)pyridin-3-yl)methyl)-6-(1H-pyrazol-1-yl)-N-(tetrahydro-2H-pyran-4-yl)picolinamide], on human mAChR M1 [1], the Emax amounted to 63%. On human mAChR M1 [2], the EC50 was more than 10 µM and the Emax is less than 5%.
